# Experimental data reported in publication PMC7044277 (Nature Communications, 2020).
# Values joined by “and” are separate entries in the source; they are usually repeats but may differ in a detail not shown here. Equal entries are not always repeated.
# Tests used:
# [1] = test system: serotonin receptor of Fig_S10h (subtype not given); experiment: β-arrestin2 recruitment (Tango), agonist activity, source data Fig_S10h; format: cell-based, human; settings: drug alone
# [2] = biological target: DRD2 F1103.28A (Homo sapiens, UniProt P14416, F110A); experiment: β-arrestin2 recruitment (Tango), mutant; format: cell-based; design: expressed in transfected cells; host or cells: HEK293T (ATCC CRL-11268)
# Chain of DRD2 F1103.28A (P14416 whole entry F110A): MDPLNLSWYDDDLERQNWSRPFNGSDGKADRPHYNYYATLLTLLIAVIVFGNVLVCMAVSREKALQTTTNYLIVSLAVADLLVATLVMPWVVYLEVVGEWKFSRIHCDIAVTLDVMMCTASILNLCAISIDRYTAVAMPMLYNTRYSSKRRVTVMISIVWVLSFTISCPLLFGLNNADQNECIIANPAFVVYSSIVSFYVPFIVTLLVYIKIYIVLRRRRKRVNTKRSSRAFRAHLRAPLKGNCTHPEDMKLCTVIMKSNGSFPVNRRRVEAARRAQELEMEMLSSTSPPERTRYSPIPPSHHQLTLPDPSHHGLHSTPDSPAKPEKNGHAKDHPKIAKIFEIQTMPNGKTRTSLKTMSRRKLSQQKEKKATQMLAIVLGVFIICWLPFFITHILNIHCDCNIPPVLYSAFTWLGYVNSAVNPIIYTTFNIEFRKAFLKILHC
# [3] = biological target: T1, 5HT4 (Homo sapiens, UniProt Q13639); experiment: β-arrestin2 recruitment (Tango); format: cell-based; settings: Fig_S10n; for β-arrestin2 recruitment response in presence of serotonin (replicate values): +10μM serotonin; for β-arrestin2 recruitment response (dose-response source data, replicate values): drug alone
# T1 construct: expressed in transfected cells; host or cells: HTLA cells expressing TEV-fused β-arrestin2
# T1 sequence (Q13639 whole entry, the tested form may be a part): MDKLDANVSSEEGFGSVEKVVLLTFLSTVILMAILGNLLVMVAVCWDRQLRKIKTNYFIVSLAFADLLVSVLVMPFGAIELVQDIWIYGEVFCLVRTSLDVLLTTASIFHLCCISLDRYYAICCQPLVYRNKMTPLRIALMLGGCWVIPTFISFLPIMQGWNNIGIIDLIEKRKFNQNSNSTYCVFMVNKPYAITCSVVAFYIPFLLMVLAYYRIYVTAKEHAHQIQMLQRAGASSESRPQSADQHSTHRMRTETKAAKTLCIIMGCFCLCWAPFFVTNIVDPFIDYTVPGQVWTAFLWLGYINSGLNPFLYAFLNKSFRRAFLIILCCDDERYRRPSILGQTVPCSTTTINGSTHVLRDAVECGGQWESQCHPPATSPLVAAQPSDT
smiles,measurement,setting,value
CCOc1cccc2cc([C@@H](C)NCC3(O)CCCCC3)oc12 [O4RE6],"response, single replicates of the concentration-response curve",[1]; Log[Drug] -6.52,15.4121
same,"response, single replicates of the concentration-response curve",[1]; Log[Drug] -7,-9.449 and 43.8621 and 11.6211 and 7.472 and -0.3671 and 7.014 and 9.027 and 5.062 and -2.318
same,"response, single replicates of the concentration-response curve",[1]; Log[Drug] -7.52,25.9192 and 27.8404 and -0.5503 and -21.2455 and 4.046 and 14.5317 and -8.748 and -4.947 and 16.7319
same,"response, single replicates of the concentration-response curve",[1]; Log[Drug] -8,2.165 and -8.081 and -1.811 and 5.963 and -1.683 and -1.147 and 3.049 and 7.499 and 13.7356
same,"response, single replicates of the concentration-response curve",[1]; Log[Drug] -8.52,-5.579 and -1.044 and 8.071 and 25.4179 and -14.3504 and -12.3048 and 9.427 and 1.454 and -6.523
same,"response, single replicates of the concentration-response curve",[1]; Log[Drug] -9,17.8788 and 11.459 and -7.1 and 19.8102 and 1.922 and -5.946 and -1.184 and 8.604 and 6.934
same,"response, single replicates of the concentration-response curve",[1]; Log[Drug] -9.52,-10.7926 and -6.0806 and -1.59 and 6.349 and 24.5524 and -6.94 and -0.1308 and 12.3434 and 15.3584
same,"response, single replicates of the concentration-response curve",[1]; Log[Drug] -10,15.7757 and 1.351 and 2.221 and 21.6342 and 13.8951 and -8.936 and 0.1938 and 1.6143 and 8.83
same,"response, single replicates of the concentration-response curve",[1]; Log[Drug] -10.52,10.0241 and -11.69 and 6.115 and -3.242 and -2.048 and 6.485 and 2.339 and 5.815 and 3.938
same,"response, single replicates of the concentration-response curve",[1]; Log[Drug] -11,9.617 and 2.873 and 5.027 and 13.6018 and -3.471 and 16.985 and 36.4073 and 2.626 and 1.374
same,"response, single replicates of the concentration-response curve",[1]; Log[Drug] -11.52,17.0328 and 12.1627 and -8.18 and -20.709 and -16.6678 and 9.0957 and -0.3236 and 13.7874 and 20.984
same,"response, single replicates of the concentration-response curve",[1]; Log[Drug] -12,-3.669 and 13.7874 and -0.578 and 18.9662 and 35.9393 and -1.197 and 0.5748 and 17.3951 and 3.035
same,EC50,[2],> 10 µM
same,β-arrestin2 recruitment response in presence of serotonin (replicate values),[3]; Log[Drug] -6.52,61.872
same,"β-arrestin2 recruitment response (dose-response source data, replicate values)",[3]; Log[Drug] -6.52,1.914
same,β-arrestin2 recruitment response in presence of serotonin (replicate values),[3]; Log[Drug] -7,64.7524 and 57.0569 and 68.7411 and 71.876 and 66.1156 and 64.7823 and 62.9846 and 72.5854 and 58.9141
same,"β-arrestin2 recruitment response (dose-response source data, replicate values)",[3]; Log[Drug] -7,0.4762 and 0.5315 and 0.3036 and 1.47 and 0.6917 and 0.6083 and -0.2126 and 0.07923 and 0.2126
same,β-arrestin2 recruitment response in presence of serotonin (replicate values),[3]; Log[Drug] -7.52,67.3937 and 54.3976 and 65.3292 and 58.7354 and 62.4375 and 61.2125 and 60.3264 and 67.443 and 67.076
same,"β-arrestin2 recruitment response (dose-response source data, replicate values)",[3]; Log[Drug] -7.52,0.4824 and 0.6557 and 1.0009 and 1.276 and 0.8198 and 0.6438 and -0.1108 and 0.08408 and -0.1463
same,β-arrestin2 recruitment response in presence of serotonin (replicate values),[3]; Log[Drug] -8,65.8409 and 63.3895 and 63.0679 and 59.9271 and 55.4104 and 64.9198 and 50.9713 and 49.466 and 77.9372
same,"β-arrestin2 recruitment response (dose-response source data, replicate values)",[3]; Log[Drug] -8,0.2279 and 0.2043 and 0.8233 and 0.8469 and 0.6458 and 2.318 and -0.27 and -0.308 and 0.6993
same,β-arrestin2 recruitment response in presence of serotonin (replicate values),[3]; Log[Drug] -8.52,63.4237 and 62.7587 and 63.6242 and 63.1469 and 61.3792 and 61.5198 and 57.3708 and 61.2149 and 65.253
same,"β-arrestin2 recruitment response (dose-response source data, replicate values)",[3]; Log[Drug] -8.52,1.195 and 1.746 and 0.9636 and 0.6083 and 1.193 and 1.147 and -0.3056 and 0.2118 and 0.0477
same,β-arrestin2 recruitment response in presence of serotonin (replicate values),[3]; Log[Drug] -9,73.1291 and 64.8356 and 60.6203 and 52.4417 and 65.9365 and 64.5823 and 63.8148 and 65.7381 and 55.6869
same,"β-arrestin2 recruitment response (dose-response source data, replicate values)",[3]; Log[Drug] -9,0.9748 and 0.4464 and 1.275 and 1.439 and 1.359 and 0.525 and -0.3751 and 0.5028 and -0.1156
same,β-arrestin2 recruitment response in presence of serotonin (replicate values),[3]; Log[Drug] -9.52,69.2832 and 67.6123 and 68.9932 and 55.1 and 63.4344 and 64.601 and 58.9998 and 66.4964 and 65.7267
same,"β-arrestin2 recruitment response (dose-response source data, replicate values)",[3]; Log[Drug] -9.52,0.9748 and 1.052 and 0.4042 and 0.901 and 0.7365 and 0.6104 and 1.02 and 0.3484 and -0.01698
same,β-arrestin2 recruitment response in presence of serotonin (replicate values),[3]; Log[Drug] -10,76.2485 and 62.2675 and 64.5873 and 59.8927 and 56.6667 and 68.1219 and 68.0316 and 61.4033 and 67.9677
same,"β-arrestin2 recruitment response (dose-response source data, replicate values)",[3]; Log[Drug] -10,0.629 and 0.5812 and 0.457 and 0.6927 and 0.4885 and 0.9823 and -0.2005 and 5.06 and 0.3864
same,β-arrestin2 recruitment response in presence of serotonin (replicate values),[3]; Log[Drug] -10.52,75.7189 and 64.7332 and 70.6094 and 73.5573 and 66.3448 and 67.3771 and 66.768 and 70.3542 and 67.3953
same,"β-arrestin2 recruitment response (dose-response source data, replicate values)",[3]; Log[Drug] -10.52,0.4328 and 0.1577 and 0.7768 and 0.8562 and 0.5281 and 1.361 and 0.08327 and -0.03395 and 0.2724
same,β-arrestin2 recruitment response in presence of serotonin (replicate values),[3]; Log[Drug] -11,74.7968 and 75.6357 and 68.127 and 60.4448 and 57.1219 and 66.626 and 65.7178 and 87.5009 and 57.2593
same,"β-arrestin2 recruitment response (dose-response source data, replicate values)",[3]; Log[Drug] -11,0.5557 and 0.7004 and 0.8308 and 2.567 and 0.5635 and 1.27 and -0.1415 and -0.4034 and 0.4066
same,β-arrestin2 recruitment response in presence of serotonin (replicate values),[3]; Log[Drug] -11.52,97.2705 and 89.1683 and 77.1935 and 74.2448 and 65.2792 and 55.4573 and 62.6402 and 78.6163 and 88.7629
same,"β-arrestin2 recruitment response (dose-response source data, replicate values)",[3]; Log[Drug] -11.52,0.4266 and 1.996 and 0.1267 and 1.773 and 0.5229 and 1.651 and 0.05093 and 0.01859 and 0.1746
same,β-arrestin2 recruitment response in presence of serotonin (replicate values),[3]; Log[Drug] -12,118.392 and 99.4834 and 97.7219 and 77.2104 and 74.4021 and 77.9375 and 116.996 and 81.757 and 92.5544
same,"β-arrestin2 recruitment response (dose-response source data, replicate values)",[3]; Log[Drug] -12,0.9382 and 1.326 and 1.032 (2×) and 0.8271 and 0.8656 and -0.4301 and -0.07599 and 0.5061
